Test results reported in publication PMC5684143, “New melanocortin-like peptide of E. coli can suppress inflammation via the mammalian melanocortin-1 receptor (MC1R): possible endocrine-like function for microbes of the gut” (NPJ Biofilms and Microbiomes, 2017).

Key:
RAW 264.7 cells [1] = assay: Peptidoglycan (PGN)-induced TNF release by RAW 264.7 cells; assay type: cell-based, murine; conditions: picomolar range of peptide; waning inhibition at nanomolar concentrations
Description: (§1) Murine macrophage-like RAW 264.7 cells were obtained from American Type Culture Collection, and were grown in Dulbecco’s Modified Eagle’s Medium (DMEM, Life Technologies) containing 10% (vol/vol) heat-inactivated fetal bovine serum (FBS, Hyclone Lab. Inc.), penicillin 100 U/ml, and streptomycin 100 μg/ml (BioWhittaker Inc.). Cells were suspended in medium and incubated in 24-well or 48-well tissue-culture plates overnight in a humidified incubator (37 °C, 5% CO2). Growth medium was removed and replaced by Opti-MEM I serum-free medium (Life Technologies) overnight. In the experiments, cell monolayers were stimulated with HMGB1 or LPS, in the absence or presence of MECO-1 or alpha-MSH; cell-free supernatants were assayed for TNF by ELISA or HMGB1 by western blotting.
(§2) Concentrations of TNF and IL-6 were each determined using a commercially available enzyme-linked immunosorbent assay (ELISA) kit (R&D System Inc.) as previously described.[34] The levels of TNF or IL-6 were calculated with reference to standard curves.
(§3) Fig. 2 Cytokine-induced TNF release inhibited by MECO-1. a Lipopolysaccharide (LPS), derived from the cell wall of Gram-negative bacteria, is a TLR4 and TLR2 agonist. RAW 264.7 cells were treated with MECO-1 and LPS simultaneously and incubated overnight. Supernatants were tested for TNF with ELISA. b Poly I:C, synthetic double stranded RNA, is recognized by TLR3. […]

[2] = tested on: human peripheral blood mononuclear cells (PBMC); assay: HMGB1-induced TNF release by human PBMC-derived macrophages; assay type: cell-based; conditions: differentiated human macrophages; HMGB1 6 hours; ELISA; three independent experiments in duplicate
Description: Human PBMC were isolated by density gradient through Ficoll-Paque^TM PLUS centrifugation (Amersham Pharmacia Biotech), and suspended in RPMI 1640 containing 10% (vol/vol) heat-inactivated human serum (BioWhittaker Inc.), penicillin 100 U/ml, and streptomycin 100 μg/ml, and incubated at 37 °C in a humidified incubator with 5% CO2 atmosphere overnight. Non-adherent cells were discarded. Adherent monocytes were washed twice with PBS and were then suspended in 12-well and 24-well tissue culture plates and incubated in the same medium but now enriched with 2.5 ng/ml macrophage colony-stimulating factor for 5–7 days.[33] […]
as §2
Human peripheral blood mononuclear cells (PBMC) were isolated by density gradient centrifugation through Ficoll-PaqueTM PLUS, and cultured for 5-7 days in medium containing macrophage colony-stimulating factor (2.5 ng/ml). […] The content of TNF in the cell-free medium was determined by ELISA and expressed as mean ± SEM of three independent experiments performed in duplicate. *p< 0.05, **p< 0.01 vs. control (=HMGB1 alone without added melanocortin peptide).

RAW 264.7 cells [3] = assay: LPS-induced HMGB1 release by RAW 264.7 cells (western blot); assay type: cell-based, murine; conditions: LPS 100 ng/ml, peptide 10^-10 M, 16-20 hrs, four independent experiments, P < 0.01
Description: as §1, with “In the experiments, cell monolayers were stimulated with HMGB1 or LPS, in the absence or presence of MECO-1 or alpha-MSH; cell-free supernatants were assayed for TNF by ELISA or HMGB1 by western blotting.” left out
The levels of HMGB1 in the culture medium or murine serum were measured by western immunoblotting as previously described.[30] […] The relative band intensity was quantified by using the NIH image 1.59 software. The levels of HMGB1 (expressed as % maximum effect) were calculated with reference to standard curves generated with purified rHMGB1 and expressed as mean ± SEM of four experiments.
Murine macrophage-like RAW 264.7 cells were incubated with LPS (100 ng/ml) in the absence or presence of MECO-1 or alpha-MSH at 10^-10 M. At 16-20 hrs after stimulation, aliquots of cell-free medium were examined. HMGB1 levels in the (conditioned) culture medium were expressed as mean ± SEM of four independent experiments with the peak level (obtained with LPS) set at 100%. […]

RAW 264.7 cells [4] = assay: Poly I:C-induced TNF release by RAW 264.7 cells; assay type: cell-based, murine; conditions: peptide 10^−15 to 10^−9 M; reduced effects above that
Description: as §1, §2, §3

“alpha-melanocyte-stimulating hormone [alpha-MSH]” was tested, and the “inhibition of PGN-induced TNF release” value (RAW 264.7 cells [1]) was “Up to 75%”, the “attenuation of HMGB-1-induced TNF release” value [2] was “significant effects in the picomolar range” and the “LPS-induced HMGB-1 secretion” value (RAW 264.7 cells [3]) was “markedly reduced”. The “inhibition of Poly I:C-induced TNF release” value (RAW 264.7 cells [4]) was “up to 90%”.
